Common to all, as to assay type: cell-based
The test system of series [1] is HUVECs. Briefly: Cord formation assay on Matrigel (angiogenesis). To be noted: Homo sapiens, HUVEC. The protocol: 60 μl Matrigel® was added to a 96-well plate flat bottom plate (Costar 3096) and incubated for 30 minutes at 37° C. in a 5% CO2 atmosphere. A mixture of HUVECs and Tsuga extract, or a positive control (Fumagillin or GM6001) were added to each well. HUVECs were prepared as suspensions of 2.5×10^5 cells per ml in EGM-2, then 500 μl of HUVECs preparation was mixed with 500 μl of 2× of the desired dilution of Tsuga extract or control drug and 200 μl were added to each well. Four dilutions of each extract were tested in duplicate. After 18-24 hours at 37° C. in 5% CO2, the cells had migrated and organized into cords. The number of cell junctions was counted in 3 randomly selected fields and the inhibition of cord formation is calculated as follows: [(A−B)/A]×100, where A is the average number of cell junctions per field in the control well and B is the average number of cell junctions per field in the treated wells.

Series [2] has as its system human skin fibroblasts. Briefly: Inhibition of contractile force of fibroblasts in collagen I gel. To be noted: Skin fibroblast, read-out: inhibition of tractional force of fibroblasts. The source says: The skin model comprises human skin fibroblasts imbedded in a collagen I matrix and provides an in vitro representation of dermal contraction resulting from tractional forces generated by fibroblasts. Partial or permanent dermal contraction can play a role in the formation of wrinkles. Thus, extracts capable of inhibiting the contractile force of fibroblasts, have the potential to provide a dermo-decontraction anti-ageing effect in the skin.
The ability of the Tsuga extracts to inhibit the contractile force of fibroblasts was evaluated on human skin fibroblasts (Cascade Biologics, Portland, Oreg.). The cells were imbedded in a collagen I matrix to create a derm-like environment. Fibroblasts were grown in complete M106 to 80% confluence. Free-floating fibroblast-populated collagen gels were prepared in 24-well plates. 500 μl of gel contains 2.5 mg/ml of collagen I (rat tail, BD Biosciences, Bedford, Mass.), M106 5X, NaOH 0.7N; 1×10^5 cells and fetal bovine serum (FBS) at 20% (Wisent, St-Bruno, QC, Canada). The mix was kept on ice until distribution. The derm-like gels were allowed to polymerize for 1 hour at 37° C. in a humidified 5% CO2 atmosphere. After incubation, the gels were detached from the wells. […] Contraction was measured beginning at day 5. Contracting gels were digitally photographed and the gel areas were calculated using ImagePro software.

For series [3], the system named is human skin keratinocytes. Briefly: IL-8 release from keratinocytes (irritation potential), ELISA. To be noted: 5 μM; basal level 18 pg/ml. The protocol:
This example provides results showing the non-irritating quality of the Tsuga extracts. The amount of interleukin-8 (IL-8) released in the following assay is used to quantify a possible irritating reaction after exposure of keratinocytes to the Tsuga extract.
Release of IL-8 was evaluated on human skin keratinocytes (Cascade Biologics, Portland, Oreg., catalog number C-005) and measured using the Quantikine hIL8 ELISA kit (R&D Systems, Minneapolis, Minn., catalog number D8000C). Keratinocytes were first grown in a 96-well plate using complete medium M154 (M154+HKGS cat S-001 from Cascade Biologics). This medium was used as a negative (non-irritating) control, while 2.5 μM phorbol 12-myristate 13-acetate (PMA) (Sigma-Aldrich Canada, Oakville, Ontario) was used as a positive (irritating) control. All extracts and controls were diluted in complete medium M154. Cells were seeded into 96-well plates at a concentration of 8×10^3 cells/well in complete M154 medium and plates were incubated for 48 hours at 37° C. in a humidified 5% CO2 atmosphere. The medium was removed and 200 μl of Tsuga extract or control were added to the wells (all performed in duplicate) and then the plates were incubated for 48 hours at 37° C. in a humidified 5% CO2 atmosphere. […] The absorbance was read at 450 nm on the Spectrafluor Plus plate reader (Tecan). […]
(In general: ELISA stands for enzyme-linked immunosorbent assay.)

For series [4], the system named is human skin keratinocytes. Briefly: UVA-induced IL-1 release in keratinocytes, ELISA. To be noted: UVA 20 J/cm^2. The protocol: This example provides results showing the anti-inflammatory effect of Tsuga extracts when inflammation is induced in keratinocytes. The amount of interleukin-1 alpha (IL-1) released is used to quantify the inflammatory reaction after exposure of the keratinocytes to UVA light irradiation. IL-1 release was evaluated in human skin keratinocytes (Cascade Biologics, Portland, Oreg.) and was measured using the Quantikine hIL1 ELISA kit (R&D Systems, Minneapolis, Minn.). Keratinocytes were first grown in a 96-well plate using complete […] medium with different concentrations of extracts for 48 hours at 37° C. in a humidified 5% CO2 atmosphere. All extracts and controls were diluted in complete […] medium. Cells were rinsed with HBSS and irradiated with UVA at 20 J/cm^2. HBSS was removed and complete […] medium containing controls or extracts was added to respective wells. Plates were incubated for another 24 hours. ELISA was performed following the manufacturer's recommendations (R&D Systems). The absorbance was read at 450 nm on the Spectrafluor Plus plate reader (Tecan). […] The inhibition of IL-1 release is proportional to the anti-inflammatory effect.

Molecules are shown by their SMILES.

The values below come from patent publication US20110177014A1, “EXTRACTS FROM PLANTS OF THE TSUGA GENUS AND USES THEREOF IN THE TREATMENT OF INFLAMMATION, IRRITATION AND/OR INFECTION” (BIOPHARMACOPAE DESIGN INTERNATIONAL INC., priority 2008, published 2011).

Usually inhibition stands for how much of the control response was suppressed.

Regarding `CO[C@@H]1[C@H](OC(=O)/C=C/C=C/C=C/C=C/C(=O)O)CC[C@]2(CO2)[C@H]1[C@@]1(C)O[C@@H]1CC=C(C)C` [Fumagillin], 15 µg/mL produced 100% inhibition in series [1] (15 μg/ml). On to `CNC(=O)[C@H](Cc1c[nH]c2ccccc12)NC(=O)[C@@H](CC(=O)NO)CC(C)C` [GM6001], for which, in series [1] (25 μM), the inhibition at 25 µM is 78%. For the same molecule, the inhibition at 50 µM in series [2] was determined as 85%.

`CCCCCCCCCCCCCC(=O)O[C@@H]1[C@@H](C)[C@@]2(O)[C@@H](C=C(CO)C[C@]3(O)C(=O)C(C)=C[C@@H]23)[C@@H]2C(C)(C)[C@]12OC(C)=O` [PMA, phorbol 12-myristate 13-acetate] gave an IL-8 release in series [3] of 282 pg/mL. Take `O=C(O)c1ccccc1O` [salicylic acid]: the “inhibition of IL-1 release” value was determined as 11% in series [4] (0.025%) and 27% in series [4] (0.05%).
